Blank lines part the entries; values can stand above or below the compound they belong to. The source made the active and inactive calls. The calls are words filed in the database; no cut-off is given here.
Columns and labels:
Tubulin (Homo sapiens) [1] = target: T1, Tubulin (Homo sapiens) (UniProt P68371+Q9H4B7+P0DPH7+P68366+Q13509+Q71U36+P04350+Q3ZCM7+P07437+P68363+Q9BQE3+Q6PEY2+Q13885+Q9BVA1+Q9BUF5); assay: Inhibition of microtubule re-polymerization in human A549 cells at 5 times GI50 preincubated for 30 min on ice followed by incubation at 37 degreeC for 10 mins by immunofluorescence analysis; format: cell-based; conditions: time 40.0 min
HCT-116 [2] = assay: Antiproliferative activity against human HCT-116 cells incubated for 72 hrs by SRB proliferation assay; format: functional
Tubulin (Homo sapiens) [3] = target: T1, Tubulin (Homo sapiens); assay: Inhibition of microtubule polymerization in human HCT-116 cells assessed as increase in soluble tubulin level at 1.25 to 5 times GI50 incubated for 5 mins by immunoblot analysis; format: cell-based
CAL-51 [4] = assay: Antiproliferative activity against human CAL-51 cells incubated for 72 hrs by SRB proliferation assay; format: functional
Tubulin (Homo sapiens) [5] = target: T1, Tubulin (Homo sapiens); assay: Inhibition of microtubule polymerization in human HCT-116 cells assessed as decrease in polymeric tubulin level at 1.25 to 5 times GI50 incubated for 5 mins by immunoblot analysis; format: cell-based
KB-V1 [6] = assay: Inhibition of P-gp in human KB-V1 cells at 5 uM by calcein AM efflux assay; format: functional, cell-based
KB 3-1 [7] = assay: Induction of apoptosis in human KB-3-1 cells assessed as increase in PARP cleavage at 1.25 to 5 uM incubated for 24 hrs by Western blot analysis; format: functional, cell-based; conditions: dose 1.25-5 µM
MCF7 = assay: Antitumor activity against human MCF7 cells by MTS assay; format: functional
HCT-116 [8] = assay: Induction of apoptosis in human HCT-116 cells assessed as increase in PARP cleavage at 1.25 to 5 times GI50 incubated for 24 to 36 hrs by Western blot analysis; format: functional, cell-based; conditions: time 24-36 hrs
A549 [9] = assay: Induction of mitotic cell arrest in human A549 cells assessed as defective spindles at 5 times GI50 incubated for 24 hrs by immunofluorescence based confocal microscopic analysis; format: functional
MV4-11 = assay: Antitumor activity against human MV4-11 cells by MTS assay; format: functional
KB 3-1 [10] = assay: Antitumor activity against human KB-3-1 cells by MTS assay; format: functional
A549 [11] = assay: Induction of mitotic cell arrest in human A549 cells assessed as chromosome misalignment at 5 times GI50 incubated for 24 hrs by immunofluorescence based confocal microscopic analysis; format: functional
HCT-116 [12] = assay: Induction of mitotic arrest in human HCT-116 cells assessed as upregulation of histone H3 phosphorylation at S10 residue at 1.25 to 5 times GI50 measured for 8 to 16 hrs by Western blot analysis; format: functional, cell-based; conditions: time 8-16 hrs
KB-V1 [13] = assay: Cytotoxicity against multidrug resistant human KB-V1 cells assessed as inhibition of cell proliferation; format: functional
[14] = Anticancer activity against human colon cancer organoids assessed as inhibition of cell viability measured after 4 days by Cell Titer Glo assay; format: functional; conditions: Colon cancer organoid, 96 h, time 4 day
[15] = Resistance index, ratio of GI50 for multidrug resistant human KB-V1 cells to GI50 for human KB-3-1 cells; format: functional
HCT-116 [16] = assay: Induction of apoptosis in human HCT-116 cells assessed as increase in apoptotic cell death at 2.5 to 5 times GI50 incubated for 24 hrs by Annexin V/PI staining based flow cytometric analysis; format: functional
A549 [17] = assay: Induction of mitotic arrest in human A549 cells assessed as increase in mitotic index by measuring histone H3 phosphorylation at S10 residue at 5 times GI50 incubated for 24 hrs by immunofluorescence analysis; format: functional, cell-based
KB-V1 [18] = assay: Induction of apoptosis in multidrug resistant human KB-V1 cells assessed as increase in PARP cleavage at 1.25 to 5 uM incubated for 24 hrs by Western blot analysis; format: functional, cell-based; conditions: dose 1.25-5 µM
Tubulin (Homo sapiens) [19] = target: T1, Tubulin (Homo sapiens); assay: Inhibition of microtubule polymerization (unknown origin) at 10 uM incubated for 1 hr by turbidimetric assay relative to control; format: protein-complex assay
[20] = Anticancer activity against mouse colon cancer organoids expressing Apc fl/fl-Kras G12D-Tp53 KO-Smad4 KO assessed as inhibition of cell viability measured after 4 days by Cell Titer Glo assay; format: functional; conditions: Colon cancer organoid, 96 h, time 4 day
CAL-51 [21] = assay: Induction of mitotic arrest in human CAL-51 cells assessed as upregulation of histone H3 phosphorylation at S10 residue at 25 uM incubated for 8 hrs by dot blot assay; format: functional, cell-based
HCT-116 [22] = assay: Induction of apoptosis in human HCT-116 cells assessed as increase in p53 expression at 1.25 to 5 times GI50 incubated for 24 to 36 hrs by Western blot analysis; format: functional, cell-based; conditions: time 24-36 hrs
HCC1954 = assay: Antitumor activity against human HCC1954 cells by MTS assay; format: functional
BT-549 = assay: Antitumor activity against human BT-549 cells by MTS assay; format: functional
KB 3-1 [23] = assay: Cytotoxicity against human KB-3-1 cells assessed as inhibition of cell proliferation; format: functional
K562 = assay: Antitumor activity against human K562 cells by MTS assay; format: functional
HCT-116 [24] = assay: Induction of cell cycle arrest in human HCT-116 cells accumulation of cells at G2/M phase incubated for 12 hrs by PI staining based flow cytometry analysis; format: functional
MOLM-13 = assay: Antitumor activity against human MOLM-13 cells by MTS assay; format: functional
KB 3-1 [25] = assay: Induction of apoptosis in human KB-3-1 cells assessed as increase in PARP cleavage at 100 uM incubated for 24 hrs by Western blot analysis; format: functional, cell-based

inhibition (Tubulin (Homo sapiens) [1]): Active
GI50 (HCT-116 [2]): 0.24 µM
inhibition (Tubulin (Homo sapiens) [3]): Active
inhibition (Tubulin (Homo sapiens) [5]): Active
SMILES: COC(=O)Nc1nc2cc(C(=O)c3cccs3)ccc2[nH]1 [NOCODAZOLE]
GI50 (CAL-51 [4]): 0.209 µM

GI50 (HCT-116 [2]): 5.44 µM
SMILES: O=C1CCCC2=C1C(c1ccc(F)c(F)c1)c1cc3c(cc1N2)OCCO3 (stereo unspecified)
GI50 (CAL-51 [4]): 7.94 µM

GI50 (HCT-116 [2]): 0.006 µM
SMILES: CC[C@]1(O)C[C@H]2CN(CCc3c([nH]c4ccccc34)[C@@](C(=O)OC)(c3cc4c(cc3OC)N(C=O)[C@H]3[C@@](O)(C(=O)OC)[C@H](OC(C)=O)[C@]5(CC)C=CCN6CC[C@]43[C@@H]65)C2)C1 [VINCRISTINE]
GI50 (CAL-51 [4]): 0.089 µM

GI50 (HCT-116 [2]): 17.3 µM
SMILES: CN1C2=C(C(=O)CCC2)C(c2ccc(Br)cc2)c2cc3c(cc21)OCCO3 (stereo unspecified)
GI50 (CAL-51 [4]): 23.7 µM

inhibition (Tubulin (Homo sapiens) [1]): Active
GI50 (HCT-116 [2]): 2.01 µM
inhibition (Tubulin (Homo sapiens) [3]): Active
GI50 (MCF7): 5.02 µM
GI50 (MV4-11): 9.45 µM
GI50 (KB 3-1 [10]): 1.29 µM
inhibition (Tubulin (Homo sapiens) [19]): Active
GI50 (HCC1954): 21.2 µM
GI50 (BT-549): 7.05 µM
GI50 (K562): 17.7 µM
GI50 (MOLM-13): 4.23 µM
inhibition (Tubulin (Homo sapiens) [5]): Active
SMILES: O=C1CCCC2=C1C(c1cccc([N+](=O)[O-])c1)c1cc3c(cc1N2)OCCO3 (stereo unspecified)
inhibition (KB-V1 [6]): inactive
Activity (KB 3-1 [7]): Active
Activity (HCT-116 [8]): Active
Activity (A549 [9]): Active
Activity (A549 [11]): Active
Activity (HCT-116 [12]): Active
GI50 (KB-V1 [13]): 1.74 µM
GI50 [14]: 11.6 µM
RatioGI50 [15]: 1.35
Activity (HCT-116 [16]): Active
Activity (A549 [17]): Active
Activity (KB-V1 [18]): Active
GI50 [20]: 7.16 µM
GI50 (CAL-51 [4]): 3.3 µM
Activity (CAL-51 [21]): Active
Activity (HCT-116 [22]): Active
GI50 (KB 3-1 [23]): 1.29 µM
Activity (HCT-116 [24]): Dose-Dependent Effect

SMILES: COc1cc([C@@H]2c3cc4c(cc3[C@H](O)[C@H]3COC(=O)[C@H]23)OCO4)cc(OC)c1OC [PODOFILOX]
GI50 (HCT-116 [2]): 0.013 µM
GI50 (CAL-51 [4]): 0.013 µM

GI50 (HCT-116 [2]): > 100 µM
SMILES: O=C1CCCC2=C1C(c1ccccc1)c1cc3c(cc1N2)OCCO3 (stereo unspecified)
GI50 (CAL-51 [4]): 9.53 µM
Activity (CAL-51 [21]): Active

GI50 (HCT-116 [2]): 11.9 µM
SMILES: COc1cccc(C2C3=C(CCCC3=O)Nc3cc4c(cc32)OCCO4)c1 (stereo unspecified)
GI50 (CAL-51 [4]): 12.7 µM
Activity (CAL-51 [21]): Active

GI50 (HCT-116 [2]): 3.33 µM
SMILES: COc1cc(C2C3=C(CCCC3=O)Nc3cc4c(cc32)OCCO4)cc(OC)c1OC (stereo unspecified)
GI50 (CAL-51 [4]): 4.15 µM
Activity (CAL-51 [21]): Active

GI50 (HCT-116 [2]): 4.64 µM
SMILES: O=C1CCCC2=C1C(c1cccc(F)c1F)c1cc3c(cc1N2)OCCO3 (stereo unspecified)
GI50 (CAL-51 [4]): 4.63 µM

GI50 (HCT-116 [2]): 9.85 µM
SMILES: O=C1CCCC2=C1C(c1ccco1)c1cc3c(cc1N2)OCCO3 (stereo unspecified)
GI50 (CAL-51 [4]): 11.8 µM
Activity (CAL-51 [21]): Active

SMILES: CC(=O)O[C@H]1C(=O)[C@@]2(C)[C@H]([C@H](OC(=O)c3ccccc3)[C@]3(O)C[C@H](OC(=O)[C@H](O)[C@@H](NC(=O)c4ccccc4)c4ccccc4)C(C)=C1C3(C)C)[C@]1(OC(C)=O)CO[C@@H]1C[C@@H]2O [PACLITAXEL]
GI50 (KB-V1 [13]): 0.432 µM
RatioGI50 [15]: 193.51
Activity (KB 3-1 [25]): Active
GI50 (KB 3-1 [23]): 0.00223 µM

GI50 (HCT-116 [2]): 12.2 µM
SMILES: COc1ccc(OC)c(C2C3=C(CCCC3=O)Nc3cc4c(cc32)OCCO4)c1 (stereo unspecified)
GI50 (CAL-51 [4]): 20.9 µM

GI50 (HCT-116 [2]): 18.4 µM
SMILES: O=C1CCCC2=C1C(c1cccc(Cl)c1)c1cc3c(cc1N2)OCCO3 (stereo unspecified)
GI50 (CAL-51 [4]): 12.6 µM
Activity (CAL-51 [21]): Active
